The results in this text go back to patent publication US7432353B2, “Fluorescent indicator proteins” (priority 2005, dated 2008).

The target of assay [1] is T1, E. coli ALBP (allose binding protein) fusion protein CalsBY-QV (Gln-Val between ECFP and ALBP), SEQ ID NO: 36 (Escherichia coli, UniProt P39265).
T1 construct: made in house; host or cells: E. coli JM109 (DE3)
Description: Allose titration and sugar specificity of FRET sensor CalsBY-QV.

Assay [2] addresses T2, E. coli RBP (ribose binding protein) fusion protein CrbsBY-ND (Asn-Asp between ECFP and RBP), SEQ ID NO: 38 (Escherichia coli, UniProt P02925).
T2 construct: made in house; host or cells: E. coli JM109 (DE3)
Description: Ribose titration and sugar specificity of FRET sensor CrbsBY-ND. To be noted: for affinity (substrate specificity): in words, FIG. 12C. As to the method:
(§1) The fluorescence analysis of the MBP fusion proteins expressed and purified in Example 2 was performed using fluorescence spectrophotometer Cary Eclipse (Varian, Australia) at 25° C., and the MBP fusion proteins were diluted in PBS buffer (pH 7.4) to the same concentrations of 0.2 μM. To define the FRET efficiency in the fluorescence analysis, the emission intensity ratio between the emission intensity of ECFP at 480 nm, measured at an excitation wavelength of 436 nm, and the emission intensity of EYFP at 530 nm, caused by FRET, was substituted into Equation 3 below for convenience: Ratio=[530 nm/480 nm] [Equation 3]
(§2) Profiles of the ratios at wide substrate concentrations were fit by a four-parameter Hill equation with SigmaPlot (SSI, USA) and the binding substance concentration corresponding to the medium between ratio10 mM and ratioapo was determined to be the dissociation constant (Kd) of the fusion proteins.
(§3) The selection of PBPs to be introduced into the MBP position was performed by collecting data from SCOP (Structural Classification of Proteins; http://scop.mrc-lmb.cam.ac.uk/scop/), and then investigating the kinetic change of three-dimensional structures which is accompanied by substrate binding in PDB (Protein Data Bank, http://www.rcsb.org/pdb/). For example, three kinds of E. coli-derived PBPs such as ALBP, RBP, and ARBP were introduced into the MBP site of the MBP fusion proteins according to the present invention. For this purpose, the genetic sequence information of said PBPs was secured from Swiss-Prot (http://kr.expasy.org/), and on the basis of the information, primers capable of amplifying genes encoding the PBPs were constructed. The genes were amplified by performing PCR from the chromosome of E. coli MG1655 using the constructed primers.
(§4) The fusion protein expression vectors constructed in the form of libraries as described above were transformed into E. coli JM109 (DE3), and 3-5 bacterial strains transformed with vectors were randomly selected from each of the libraries without carrying out the screening process described in Example 4, and were expressed and purified according to the method of Example 2. Then, the various PBP fusion proteins were subjected to analyze the fluorescence characteristics to each of substances, and sugar sensors (the fluorescent indicator proteins for detection of sugar) having the highest signal intensity were selected. As a result, as shown on FIGS. 11A, 11B and 11C, and Table 2 below, CalsBY-QV of SEQ ID NO: 36, CaraFY-PR of SEQ ID NO: 37 and CrbsBY-ND of SEQ ID NO: 38 could be secured.
(§5) To examine the substrate affinity of said three kinds of fusion proteins, the substrate specificity thereof for a variety of sugars was analyzed.

Assay [3] concerns the target T3, E. coli ARBP (arabinose binding protein) fusion protein CaraFY-PR (Pro-Arg between ECFP and ARBP), SEQ ID NO: 37 (Escherichia coli, UniProt P02924).
T3 construct: made in house; host or cells: E. coli JM109 (DE3)
Description: Arabinose titration and sugar specificity of FRET sensor CaraFY-PR. To be noted: for affinity (substrate specificity): in words, FIG. 12B. As to the method:
as §1, §2, §3, §4, §5

The target of assay [4] is T4, MBP (maltose binding protein) fusion protein CMY-LH (Leu-His between ECFP and MBP), SEQ ID NO: 32 (Escherichia coli, UniProt P0AEX9).
T4 construct: made in house; host or cells: E. coli JM109 (DE3)
Description: Maltose titration and sugar specificity of FRET sensor CMY-LH. To be noted: for affinity (substrate specificity): in words, FIG. 8A, 10 mM for d-glucose and melezitose, change attributed to contamination of trace maltose. On the procedure: as §1, §2

Assay [5] concerns the target T5, MBP (maltose binding protein) fusion protein CMY-0 (ECFP-MBP-EYFP without connecting peptides) (Escherichia coli, UniProt P0AEX9).
T5 construct: mature MBP amplified from pMALc2x (NEB); expressed in E. coli JM109(DE3), purified
Description: Maltose titration of FRET sensor CMY-0 (fluorescence ratio 530/480 nm). To be noted: range between 10 and 90% saturation. On the procedure: as §1, §2

Assay [6] addresses T6, MBP (maltose binding protein) fusion protein CMY-B (ECFP-MBP-EYFP) (Escherichia coli, UniProt P0AEX9).
T6 construct: mature MBP from pMALc2x; expressed in E. coli JM109(DE3), purified
In words: Maltose response of FRET sensor CMY-B. To be noted: in words; control for yeast imaging, 10 mM maltose. On the procedure: as §1, §2

The target of assay [7] is T7, MBP (maltose binding protein) fusion protein CMY-BII (ECFP-SR-MBP-GS-EYFP) (Escherichia coli, UniProt P0AEX9).
T7 construct: mature MBP from pMALc2x; expressed in E. coli JM109(DE3), purified
In words: Maltose titration of FRET sensor CMY-BII. To be noted: range between 10 and 90% saturation. On the procedure:
as §1, §2

For assay [8], the target named is T8, MBP (maltose binding protein) fusion protein CMY-QI (Gln-Ile between ECFP and MBP), SEQ ID NO: 31 (Escherichia coli, UniProt P0AEX9).
T8 construct: made in house; host or cells: E. coli JM109 (DE3)
Description: Maltose titration of FRET sensor CMY-QI. To be noted: range between 10 and 90% saturation. On the procedure: as §1, §2

In assay [9] the target is T9, MBP (maltose binding protein) fusion protein CMY-LH variant CMY-LH/W62H (Trp62His in MBP), SEQ ID NO: 34 (Escherichia coli, UniProt P0AEX9, W88H).
T9 construct: made in house; host or cells: E. coli JM109 (DE3)
In words: Maltose titration and sugar specificity of FRET sensor CMY-LH/W62H. To be noted: range between 10 and 90% saturation. On the procedure: as §1, §2

Assay [10] deals with T10, MBP (maltose binding protein) fusion protein CMY-LH variant CMY-LH/W62L (Trp62Leu in MBP), SEQ ID NO: 35 (Escherichia coli, UniProt P0AEX9, W88L).
T10 construct: made in house; host or cells: E. coli JM109 (DE3)
In words: Maltose titration and sugar specificity of FRET sensor CMY-LH/W62L. To be noted: range between 10 and 90% saturation. As to the method:
as §1, §2

Assay [11] deals with T11, MBP (maltose binding protein) fusion protein CMY-LH variant CMY-LH/W62A (Trp62Ala in MBP), SEQ ID NO: 33 (Escherichia coli, UniProt P0AEX9, W88A).
T11 construct: made in house; host or cells: E. coli JM109 (DE3)
Description: Maltose titration of FRET sensor CMY-LH/W62A. To be noted: range between 10 and 90% saturation. As to the method:
as §1, §2

Assay [12] has as its target T12, SBP (sucrose binding protein; MBP mutant Asp14Leu, Lys15Phe, Trp62Tyr, Glu111Tyr) fusion protein CSY-B (Escherichia coli, UniProt P0AEX9, D40L/E137Y/K41F/W88Y).
T12 construct: SBP = engineered MBP made on pMALc2x template; expressed in E. coli JM109(DE3), purified
In words: Sucrose and maltose titration of FRET sensor CSY-B. To be noted: for Quantification range: range between 10 and 90% saturation. As to the method:
as §1, §2
(§6) The MBP-encoding gene to be used as a template was a pMALc2x vector (NEB, USA), and to make the SBP gene, PCR was performed using primers of SEQ ID NOs: 27, 28, 29 and 11. Because the above-amplified gene contains partial mutations in MBP, including a substitution of Asp14 with Leu, a substitution of Lys15 with Phe, a substitution of Trp62 with Tyr, and a substitution of Glu111 with Tyr, it encodes the SBP gene capable of binding to sucrose, as reported in the prior art (Guntas, G. et al., PNAS, 102:11224, 2005).
(§7) The above SBP fusion protein expression vectors were transformed into E. Coli JM109 (DE3), expressed and purified according to the method of Example 3.

Assay [13] deals with T13, SBP (sucrose binding protein; MBP mutant Asp14Leu, Lys15Phe, Trp62Tyr, Glu111Tyr) fusion protein CSY-BII (Escherichia coli, UniProt P0AEX9, D40L/E137Y/K41F/W88Y).
T13 construct: SBP = engineered MBP made on pMALc2x template; expressed in E. coli JM109(DE3), purified
Description: Sucrose and maltose titration of FRET sensor CSY-BII. To be noted: for Quantification range: range between 10 and 90% saturation. As to the method: as §1, §2, §6, §7

For assay [14], the target named is T14, SBP (sucrose binding protein; MBP mutant Asp14Leu, Lys15Phe, Trp62Tyr, Glu111Tyr) fusion protein CSY-LH, SEQ ID NO: 39 (Escherichia coli, UniProt P0AEX9, D40L/E137Y/K41F/W88Y).
T14 construct: made in house; host or cells: E. coli JM109 (DE3)
Description: Sucrose and maltose titration and sugar specificity of FRET sensor CSY-LH. To be noted: for Quantification range: range between 10 and 90% saturation. On the procedure: as §1, §2, §6, §7
The CSY-LH was analyzed for binding affinity for a variety of sugars.

[15] abbreviates: ratio(10 mM) minus ratioapo, saturating sugar.

For the molecule `OC[C@H]1OC(O)[C@H](O)[C@H](O)[C@@H]1O` (some centres unmarked) [allose], the Quantification range in [1] (allose, range between 10 and 90% saturation) fell in the range of 0.04 to 2.81 µM. The “affinity (substrate specificity)” value in assay [2] was “very high affinity”.
In the case of `OC1OC[C@H](O)[C@H](O)[C@H]1O` (some centres unmarked) [arabinose], the Kd – broadly, the free concentration of one partner at which half of the binding sites on the other are occupied at equilibrium, for simple one-to-one binding – in assay [3] was 0.36 ± 0.01 µM. In assay [3] (arabinose, range between 10 and 90% saturation), this molecule yielded a Quantification range of 0.05 to 2.74 µM. Further, the Δratio in assay [3] (arabinose, ratio(10 mM) minus ratioapo, saturating sugar) came out at 0.29.
Turning to `OC[C@H]1OC(O)[C@H](O)[C@@H](O)[C@@H]1O` (stereo partly drawn) [d-glucose], the “affinity (substrate specificity)” value in [4] is “low level of affinity”.
For `OC[C@H]1OC(O)[C@H](O)[C@@H](O)[C@H]1O` (some centres unmarked) [galactose], the “affinity (substrate specificity)” value in [3] is recorded as “very high affinity”.
On the same count and under the same terms, in the case of `OC[C@H]1O[C@@H](O[C@H]2[C@H](O)[C@@H](O)C(O)O[C@@H]2CO)[C@H](O)[C@@H](O)[C@H]1O` (some centres unmarked) [lactose] it was “low affinity”.
For the molecule `OC[C@H]1O[C@H](O[C@H]2[C@H](O)[C@@H](O)C(O)O[C@@H]2CO)[C@H](O)[C@@H](O)[C@@H]1O` (some centres unmarked) [maltose], the Quantification range in assay [5] lay within 0.5 to 11.2 µM; in assay [7], 0.3 to 13.3 µM; in [8], 0.2 to 15.1 µM; in [4] (maltose, range between 10 and 90% saturation) it was 0.2 to 13.2 µM; in [9] it was 5 to 325 µM; in assay [10] it was 10 to 650 µM. Further, the Quantification range was 31-2,080 μM in assay [11], 120-9,500 μM in assay [12], 155-3,800 μM in assay [13] and 80-5,080 μM in assay [14]. For the same molecule, in assay [6], the sensitivity to maltose entry was “no sensitivity”.
As to `OC[C@H]1O[C@@](CO)(O[C@H]2O[C@H](CO)[C@@H](O)[C@H](O)[C@H]2O)[C@@H](O[C@H]2O[C@H](CO)[C@@H](O)[C@H](O)[C@H]2O)[C@@H]1O` [melezitose], the “affinity (substrate specificity)” value in [4] is recorded as “low level of affinity”.
Regarding `OC[C@H]1O[C@H](OC[C@H]2OC(O)[C@H](O)[C@@H](O)[C@@H]2O)[C@H](O)[C@@H](O)[C@H]1O` (some centres unmarked) [melibiose], the “affinity (substrate specificity)” value in assay [3] was “low affinity”.
The same measure, in the same setting: in the case of `C[C@@H]1OC(O)[C@H](O)[C@H](O)[C@H]1O` (some centres unmarked) [rhamnose] it was “low affinity”.
Take `OC1OC[C@@H](O)[C@@H](O)[C@H]1O` (some centres unmarked) [ribose]: the “affinity (substrate specificity)” value in assay [1] (in words, FIG. 12A, ribose at mM levels) is reported as “low affinity”. Further, the Kd in assay [2] (ribose, 50% saturation) was determined as 0.17 ± 0.01 µM. In addition, the Quantification range in [2] (ribose, range between 10 and 90% saturation) fell in the range of 0.03 to 1.15 µM. For the same molecule, the Δratio in assay [2] (ribose, ratio(10 mM) minus ratioapo, saturating sugar) was −0.12.
Consider `OC[C@H]1O[C@@](CO)(O[C@H]2O[C@H](CO)[C@@H](O)[C@H](O)[C@H]2O)[C@@H](O)[C@@H]1O` [sucrose], for which the Kd in assay [12] turned out to be 286 ± 16 µM; in assay [13] it was 234 ± 18 µM; in assay [14], 163 ± 3 µM. The Quantification range is 20-3,700 μM in [12], 30-1,880 μM in [13] and 17-1,560 μM in assay [14]. For the same molecule, the Δratio in assay [12] (setting [15]) is −0.11; in assay [13] (setting [15]), 0.14; in assay [14] (setting [15]), 0.72. In addition, the “Kd, fold higher than previously reported results” value in assay [14] (compared to Guntas et al., PNAS, 102:11224, 2005) is reported as “about 25 fold”.
With `OC1OC[C@@H](O)[C@H](O)[C@H]1O` (some centres unmarked) [xylose], the “affinity (substrate specificity)” value is “low affinity” in assay [3] and “significant affinity” in assay [2].
